Assay results as given in BindingDB's records for doi:10.1007/s00213-002-1073-7 (WestfÄLische Wilhelms-Universit&Auml, 2002).
Where “and” joins values, the source holds several entries; their conditions need not be identical. Equal values may be shown once.

Columns and labels:
[1] = biological target: T1, 5-hydroxytryptamine receptor 1A (Homo sapiens, UniProt P08908)
T1 sequence (P08908 whole entry): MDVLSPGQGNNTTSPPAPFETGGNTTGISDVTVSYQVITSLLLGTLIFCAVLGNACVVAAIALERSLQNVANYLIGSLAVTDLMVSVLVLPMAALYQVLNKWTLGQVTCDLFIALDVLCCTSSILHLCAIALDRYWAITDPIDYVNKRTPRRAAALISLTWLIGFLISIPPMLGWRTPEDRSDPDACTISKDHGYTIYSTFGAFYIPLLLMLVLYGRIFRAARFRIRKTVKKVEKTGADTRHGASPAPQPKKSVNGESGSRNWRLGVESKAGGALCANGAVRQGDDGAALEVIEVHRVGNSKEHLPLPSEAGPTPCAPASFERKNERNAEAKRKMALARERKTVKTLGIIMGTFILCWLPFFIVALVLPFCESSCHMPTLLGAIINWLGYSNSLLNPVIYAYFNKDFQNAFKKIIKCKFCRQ

[2] = biological target: Muscarinic acetylcholine receptor M3 (Homo sapiens, UniProt P20309)
Sequence of Muscarinic acetylcholine receptor M3 (P20309 whole entry): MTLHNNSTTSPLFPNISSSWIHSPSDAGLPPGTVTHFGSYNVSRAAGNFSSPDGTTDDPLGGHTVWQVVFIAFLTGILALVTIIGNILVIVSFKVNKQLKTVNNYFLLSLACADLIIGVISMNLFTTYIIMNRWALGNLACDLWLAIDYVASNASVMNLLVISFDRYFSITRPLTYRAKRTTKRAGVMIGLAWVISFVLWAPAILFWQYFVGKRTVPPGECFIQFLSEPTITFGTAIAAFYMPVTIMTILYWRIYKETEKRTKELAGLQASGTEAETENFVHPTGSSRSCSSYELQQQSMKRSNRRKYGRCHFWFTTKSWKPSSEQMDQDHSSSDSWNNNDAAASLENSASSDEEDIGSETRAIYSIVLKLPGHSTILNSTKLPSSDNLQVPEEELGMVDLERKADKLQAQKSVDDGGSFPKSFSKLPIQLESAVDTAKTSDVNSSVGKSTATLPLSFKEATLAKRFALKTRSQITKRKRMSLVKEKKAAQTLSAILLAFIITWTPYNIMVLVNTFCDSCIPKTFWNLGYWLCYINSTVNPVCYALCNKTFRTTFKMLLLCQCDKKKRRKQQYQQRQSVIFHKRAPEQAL

D(3) dopamine receptor = D(3) dopamine receptor (Rattus norvegicus, UniProt P19020)
Sequence of D(3) dopamine receptor (P19020 whole entry): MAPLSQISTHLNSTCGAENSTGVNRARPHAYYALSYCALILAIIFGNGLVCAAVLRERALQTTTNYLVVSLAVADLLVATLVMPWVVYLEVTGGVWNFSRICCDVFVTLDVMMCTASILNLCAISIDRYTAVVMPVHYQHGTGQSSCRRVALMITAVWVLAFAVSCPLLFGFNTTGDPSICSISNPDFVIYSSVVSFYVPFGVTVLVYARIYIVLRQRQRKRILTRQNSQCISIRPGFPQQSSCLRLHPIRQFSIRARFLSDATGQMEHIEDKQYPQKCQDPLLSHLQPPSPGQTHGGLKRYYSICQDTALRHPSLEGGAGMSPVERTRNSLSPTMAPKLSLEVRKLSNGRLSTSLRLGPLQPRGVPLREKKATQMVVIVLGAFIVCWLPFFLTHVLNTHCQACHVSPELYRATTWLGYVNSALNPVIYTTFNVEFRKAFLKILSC

[3] = biological target: 5-hydroxytryptamine receptor 5A (Homo sapiens, UniProt P47898)
Sequence of 5-hydroxytryptamine receptor 5A (P47898 whole entry): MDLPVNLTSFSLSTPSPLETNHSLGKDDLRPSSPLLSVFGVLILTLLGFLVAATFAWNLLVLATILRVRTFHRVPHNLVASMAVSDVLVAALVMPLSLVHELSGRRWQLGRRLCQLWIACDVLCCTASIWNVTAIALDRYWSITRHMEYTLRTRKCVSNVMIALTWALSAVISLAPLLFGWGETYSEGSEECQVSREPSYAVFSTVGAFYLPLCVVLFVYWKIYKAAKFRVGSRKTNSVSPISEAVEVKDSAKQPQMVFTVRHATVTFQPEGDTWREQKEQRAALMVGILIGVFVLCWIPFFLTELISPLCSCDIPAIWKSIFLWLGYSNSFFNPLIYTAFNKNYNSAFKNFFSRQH

D(1B) dopamine receptor = D(1B) dopamine receptor (Homo sapiens, UniProt P21918)
Sequence of D(1B) dopamine receptor (P21918 whole entry): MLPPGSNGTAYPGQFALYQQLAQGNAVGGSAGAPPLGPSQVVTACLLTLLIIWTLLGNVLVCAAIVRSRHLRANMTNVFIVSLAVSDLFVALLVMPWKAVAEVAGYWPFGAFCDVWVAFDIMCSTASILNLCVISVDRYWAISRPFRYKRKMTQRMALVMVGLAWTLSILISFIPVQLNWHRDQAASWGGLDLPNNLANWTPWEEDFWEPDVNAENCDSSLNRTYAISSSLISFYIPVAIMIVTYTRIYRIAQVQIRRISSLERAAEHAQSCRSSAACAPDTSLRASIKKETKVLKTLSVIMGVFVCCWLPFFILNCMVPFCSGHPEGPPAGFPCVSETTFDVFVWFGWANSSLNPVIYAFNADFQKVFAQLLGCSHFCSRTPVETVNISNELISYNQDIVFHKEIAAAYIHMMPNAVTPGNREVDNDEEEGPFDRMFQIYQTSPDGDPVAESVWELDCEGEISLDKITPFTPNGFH

[4] = biological target: T2, Alpha-2C adrenergic receptor (Homo sapiens, UniProt P18825)
T2 sequence (P18825 whole entry): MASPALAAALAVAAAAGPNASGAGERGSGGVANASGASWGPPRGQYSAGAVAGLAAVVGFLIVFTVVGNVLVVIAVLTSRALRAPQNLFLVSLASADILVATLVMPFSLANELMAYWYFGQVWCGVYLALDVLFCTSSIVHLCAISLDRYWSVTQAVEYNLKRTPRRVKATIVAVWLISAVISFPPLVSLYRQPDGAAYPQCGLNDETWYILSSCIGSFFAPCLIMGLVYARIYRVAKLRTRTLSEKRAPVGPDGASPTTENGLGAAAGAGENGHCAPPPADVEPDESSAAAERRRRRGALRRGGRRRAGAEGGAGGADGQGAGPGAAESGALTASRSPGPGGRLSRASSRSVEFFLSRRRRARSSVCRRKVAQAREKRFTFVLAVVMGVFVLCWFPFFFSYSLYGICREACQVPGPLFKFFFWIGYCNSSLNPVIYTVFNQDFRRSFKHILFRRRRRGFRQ

[5] = biological target: T3, Muscarinic acetylcholine receptor M1 (Homo sapiens, UniProt P11229)
T3 sequence (P11229 whole entry): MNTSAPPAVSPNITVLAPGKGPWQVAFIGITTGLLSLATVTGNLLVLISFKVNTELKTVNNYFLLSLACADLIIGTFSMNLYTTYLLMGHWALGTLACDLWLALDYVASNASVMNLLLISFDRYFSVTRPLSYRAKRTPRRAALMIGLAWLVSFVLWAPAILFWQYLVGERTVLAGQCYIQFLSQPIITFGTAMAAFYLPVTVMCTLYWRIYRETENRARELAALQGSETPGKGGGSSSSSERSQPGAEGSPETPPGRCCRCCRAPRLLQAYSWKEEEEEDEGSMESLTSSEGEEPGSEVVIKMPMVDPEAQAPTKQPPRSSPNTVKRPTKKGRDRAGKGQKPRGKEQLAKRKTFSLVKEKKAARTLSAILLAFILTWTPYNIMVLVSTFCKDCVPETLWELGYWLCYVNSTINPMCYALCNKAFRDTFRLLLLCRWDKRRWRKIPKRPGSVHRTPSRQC

[6] = biological target: T4, Alpha-1B adrenergic receptor (Homo sapiens, UniProt P35368)
T4 sequence (P35368 whole entry): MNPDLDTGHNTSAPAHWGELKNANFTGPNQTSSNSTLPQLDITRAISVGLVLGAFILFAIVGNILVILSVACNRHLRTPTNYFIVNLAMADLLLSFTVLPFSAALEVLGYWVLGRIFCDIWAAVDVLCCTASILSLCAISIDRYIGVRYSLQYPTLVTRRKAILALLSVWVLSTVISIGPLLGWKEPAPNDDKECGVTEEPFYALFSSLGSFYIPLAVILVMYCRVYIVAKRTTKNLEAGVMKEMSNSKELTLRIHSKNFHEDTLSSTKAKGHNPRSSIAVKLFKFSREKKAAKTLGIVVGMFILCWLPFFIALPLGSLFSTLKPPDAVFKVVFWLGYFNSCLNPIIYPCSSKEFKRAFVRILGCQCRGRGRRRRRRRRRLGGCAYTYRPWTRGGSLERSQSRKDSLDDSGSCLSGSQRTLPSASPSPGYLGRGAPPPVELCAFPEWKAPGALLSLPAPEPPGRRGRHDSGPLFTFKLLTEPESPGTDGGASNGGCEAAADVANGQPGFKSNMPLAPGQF

Vasopressin V1b receptor = biological target: T5, Vasopressin V1b receptor (Homo sapiens, UniProt P47901)
T5 sequence (P47901 whole entry): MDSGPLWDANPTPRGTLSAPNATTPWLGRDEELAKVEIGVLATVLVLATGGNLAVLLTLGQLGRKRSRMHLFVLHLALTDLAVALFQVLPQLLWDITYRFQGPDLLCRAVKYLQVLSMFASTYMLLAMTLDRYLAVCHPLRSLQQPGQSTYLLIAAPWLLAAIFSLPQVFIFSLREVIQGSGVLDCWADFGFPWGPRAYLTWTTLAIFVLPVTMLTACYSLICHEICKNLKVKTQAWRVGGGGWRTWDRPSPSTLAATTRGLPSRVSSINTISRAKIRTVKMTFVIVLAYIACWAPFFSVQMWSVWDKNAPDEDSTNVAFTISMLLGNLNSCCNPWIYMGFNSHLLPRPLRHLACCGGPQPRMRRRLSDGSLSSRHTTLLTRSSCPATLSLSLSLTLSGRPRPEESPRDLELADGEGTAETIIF

Row | Ki [1] [µM] | Ki [2] [µM] | Ki (D(3) dopamine receptor) [µM] | Ki [3] [µM] | Ki (D(1B) dopamine receptor) [µM] | Ki [4] | Ki [5] [µM] | Ki [6] [µM] | Ki (Vasopressin V1b receptor) [µM] | Structure (SMILES)
1 | > 10 | > 10 | > 10 | > 10 | > 10 | 9.64 µM | > 10 | > 10 | > 10 | C[C@@H]1O[C@@H](OC[C@H]2O[C@@H](Oc3c(-c4ccc(O)c(O)c4)oc4cc(O)cc(O)c4c3=O)[C@H](O)[C@@H](O)[C@@H]2O)[C@H](O)[C@H](O)[C@H]1O [3-Rhamnoglucosylquercetin]
2 | > 10 | > 10 | > 10 | > 10 | > 10 | > 10 µM and 4.06 µM | > 10 | > 10 | > 10 | O=c1cc(O)cc2oc(-c3ccc(O)c(O)c3)c(OC3OC(CO)C(O)C(O)C3O)c(O)c1-2 (centres undefined) [NSC_5318390]
3 | > 10 | > 10 | 1.24 | > 10 | > 10 | > 10 µM | > 10 | > 10 | > 10 | O=c1cc(O)cc2oc(-c3ccc(O)c(-c4c(O)cc(O)c5c(=O)cc(-c6ccc(O)cc6)oc45)c3)cc(O)c1-2

The next lines start with the compound.

Row | Structure (SMILES) | Ki [1] [µM] | Ki [2] [µM] | Ki (D(3) dopamine receptor) [µM] | Ki [3] [µM] | Ki (D(1B) dopamine receptor) [µM] | Ki [4] | Ki [5] [µM] | Ki [6] [µM] | Ki (Vasopressin V1b receptor) [µM]
4 | O=c1c(O)c(-c2ccc(O)c(O)c2)oc2cc(O)cc(O)c12 [2-(3,4-dihydroxyphenyl)-3,5,7-trihydroxy-chromone;hydrate] | > 10 | > 10 | > 10 | > 10 | > 10 | > 10 µM | > 10 | > 10 | > 10
5 | CC(C)=CCC[C@]1(C)[C@@H](CC=C(C)C)C[C@]2(CC=C(C)C)C(=O)C(CC=C(C)C)C(=O)[C@]1(C(=O)C(C)C)C2=O (some centres undefined) | > 10 | > 10 | > 10 | > 10 | > 10 | > 10 µM | > 10 | > 10 | > 10
6 | C[C@@H]1O[C@@H](Oc2c(-c3ccc(O)c(O)c3)oc3cc(O)cc(=O)c-3c2O)[C@H](O)[C@H](O)[C@H]1O | > 10 | > 10 | > 10 | > 10 | > 10 | > 10 µM | > 10 | > 10 | > 10
